The results in this text go back to patent US11339184B2, “Antibacterial compounds, compositions thereof, and methods using same” (priority 2019, dated 2022).

Assay [1] relates to M. avium. Kind of assay: MIC against other mycobacteria: M. avium. It counts as cell-based. The settings on record: Table 3, M. avium.
The subject of assay [2] is M. tuberculosis H37rv. The assay is described as follows: Antibiotic assay against M. tuberculosis (MIC / IC90). It counts as cell-based, Mycobacterium tuberculosis. To be noted: for IC90: H37Rv.
Assay [3] has as its system M. abscessus. The assay is described as follows: MIC against other mycobacteria: M. abscessus. In kind it is cell-based. To be noted: Table 3, M. abscessus.
In assay [4] the test system is M. marinum. The assay is described as follows: MIC against other mycobacteria: M. marinum. It counts as cell-based. The settings on record: Table 3, M. marinum.
The test system of assay [5] is M. smegmatis. The assay is described as follows: MIC against other mycobacteria: M. smegmatis. In kind it is cell-based. To be noted: Table 3, M. smegmatis.
Assay [6] has as its system Gram-positive bacteria, including Staphylococcus aureus, Staphylococcus epidermidis, Listeria monocytogenes and M. tuberculosis. It counts as cell-based.
The mark [7] stands for this setting: Table 4, Formula III derivatives, M. tuberculosis H37rv.

Structures are written as SMILES. In brackets after ≈: the same amount, converted by molar mass. Like-named read-outs stand apart in the source and are kept apart here. Where only a bound is given, the exact number is not on record here.

Usually MIC stands for the lowest concentration that inhibits growth of the organism. Read a high MIC as a need for much substance. As a reminder, the IC90 is the point of the concentration-response curve where the effect stands at 90%.

For the compound `CO[C@H]1/C=C/O[C@@]2(C)Oc3c(C)c(O)c4c(O)c(c(/C=N/N5CCN(C)CC5)c(O)c4c3C2=O)NC(=O)/C(C)=C\C=C\[C@H](C)[C@H](O)[C@@H](C)[C@@H](O)[C@@H](C)[C@H](OC(C)=O)[C@@H]1C` [Rif, rifampicin], the minimum inhibitory concentration (MIC) in assay [1] is less than 0.195 µg/mL; in assay [2], 0.05 µg/mL (≈ 0.0608 µM); in assay [2] (Table 3, M. tuberculosis H37rv, Trial 2) it was 0.31 µg/mL (≈ 0.377 µM); in assay [2] (Table 3, M. tuberculosis H37rv, Trial 3) it was 0.31 µg/mL (≈ 0.377 µM); in assay [2] (Table 3, M. tuberculosis H37rv, Trial 4), 0.31 µg/mL (≈ 0.377 µM); in assay [2] (setting [7]), less than 0.02 µg/mL. For the same compound, the MIC in assay [3], in assay [4] and in assay [5] was more than 25 µg/mL throughout.
Compound `CC(=O)OC1C(C)C(OC2CC3OCOC3C(C)O2)/C=C/OC2(C)CC(O)c3c(c(C)c(O)c4c3C(=O)C=C(NC(=O)/C(C)=C\C=C\C(C(C)OC(=O)C(C)(C)CC(=O)O)C(O)C(C)C(O)C1C)C4=O)O2` (centres unmarked) [kanglemycin V1] returned an IC90 in assay [2] of 3120 nM. Also, the “activity as antibiotics against Gram-positive bacteria” value in assay [6] is “active”.
`CC(=O)OC1C(C)C(OC2CC3OCOC3C(C)O2)/C=C/OC2(C)OC3=C(C)C(=O)c4c(O)c(cc5c4C3=C2OCO5)NC(=O)/C(C)=C\C=C\C(C(C)OC(=O)C(C)(C)CC(=O)O)C(O)C(C)C(O)C1C` (centres unmarked) [kanglemycin V2] showed an IC90 in assay [2] of 1560 nM. 0.08 µg/mL (≈ 0.0803 µM) was the least that counted as inhibitory in assay [2] (setting [7]) (MIC). Also, the “activity as antibiotics against Gram-positive bacteria” value in assay [6] is “active”.
